Patent publication US12459951B2, “Compounds that interact with RAS superfamily proteins for treatment of cancers, inflammatory diseases, rasopathies, and fibrotic disease” (SHY Therapeutics, LLC, priority 2022, dated 2025)

Key:
[1] = tested on: TNF-alpha; test: TNF-alpha Quantification Assay (ELISA), LPS-stimulated RAW 264.7; assay type: cell-based; conditions: Mus musculus, RAW264.7; at 10 μM; read-out: TNFα: % inh.
[2] = tested on: KRas G12D mutant; test: Ras GTP Binding Domain Inhibition Assay (Ras Superfamily Assay); conditions: 20 μM compound; for KRas G12D mutant + SOS: % inh.: with SOS; for KRas G12D mutant: % inh.: without SOS
Summary of the method: (§1)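 Binding of 100 nM fluorescent GTP (Cy3 or Cy5, 45 min, room temperature) was read after washes from plate-captured His-tagged protein. Beforehand, compounds at 20 μM or in dilution series for IC50 sat 3 h on the protein in Tris buffer pH 7.4 or 7.0 with 1% DMSO, Sos GEF optionally added for the last hour.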

[3] = molecular target: T1, Rac-1 (Homo sapiens, UniProt P63000); test: as above; conditions: read-out: Rac-1: % inh.
T1 construct: made in house
Summary of the method: as §1

[4] = tested on: KRas wild type; test: as above; conditions: 20 μM compound; for KRas wild type + SOS: % inh.: with SOS; for KRas wild type: % inh.: without SOS
Summary of the method: as §1

[5] = tested on: Smad2/Smad3 phosphorylation; test: Phospho-Smad2/3 Inhibition Assay (western blot), Panc-1; assay type: cell-based, human; conditions: at 10 μM, Panc-1 pancreatic cancer cell line; starred symbols = activation
Summary of the method: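 Panc-1 cells (KRas G12D), starved overnight in 0.5% FBS, treated 3 h at 37° C with compound at 10 μM final (0.3% DMSO) or serial dilutions for IC50, then stimulated with 10 ng/ml TGF-b1 for 1 h. Phospho-Smad2 (Ser465/467) and phospho-Smad3 (Ser423/425) detected by western blot.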

| KRas G12D mutant + SOS: % inh. [2] | KRas G12D mutant: % inh. [2] | inhibition at 20 µM [3] [%] | KRas wild type + SOS: % inh. [4] | KRas wild type: % inh. [4] | Structure (SMILES) | inhibition at 10 µM [1] [%] | % inh of Smad2/3 phosphorylation in Panc-1 [5] |
| --- | --- | --- | --- | --- | --- | --- | --- |
| 0 (0 = 0% inhibition) | A (A = 1-25% inhibition) | 1 to 25 | A (A = 1-25% inhibition) | A (A = 1-25% inhibition) | COc1cc(-c2cn3nc(-c4nccn4C)nc(N[C@@H]4CC[C@H](OC)C4)c3c2C)ccn1 (racemic) [Compound 164, rac N-((1R,3S)-3-Methoxycyclopentyl)-6-(2-methoxypyridin-4-yl)-5-methyl-2-(1-methyl-1H-imidazol-2-yl)pyrrolo[2,1-f][1,2,4]triazin-4-amine] | 1 to 24 | A* (A* = 1-25% activation) |
| C (C = 50-75% inhibition) | C (C = 50-75% inhibition) | 50 to 75 | B (B = 26-49% inhibition) | C (C = 50-75% inhibition) | COCCO[C@H]1C[C@H](Nc2nc(-c3nccn3C)nn3cc(-c4cccnc4)c(C)c23)C1 [Compound 152, N-((1r,3r)-3-(2-methoxyethoxy)cyclo-butyl)-5-methyl-2-(1-methyl-1H-imidazol-2-yl)-6-(pyridin-3-yl)pyrrolo[2,1-f][1,2,4]triazin-4-amine] | 0 | A (A = 1-25% inhibition) |
| 0 (0 = 0% inhibition) | 0 (0 = 0% inhibition) | 0 | 0 (0 = 0% inhibition) | 0 (0 = 0% inhibition) | COc1cc(-c2cn3nc(-c4nccn4C)nc(N[C@@H]4CC[C@@H](OC)C4)c3c2C)ccn1 (racemic) [Compound 163, rac N-((1R,3R)-3-Methoxycyclopentyl)-6-(2-methoxypyridin-4-yl)-5-methyl-2-(1-methyl-1H-imidazol-2-yl)pyrrolo[2,1-f][1,2,4]triazin-4-amine] | 1 to 24 | B (B = 26-45% inhibition) |
| A (A = 1-25% inhibition) | B (B = 26-49% inhibition) | 1 to 25 | A (A = 1-25% inhibition) | A (A = 1-25% inhibition) | COc1cc(Nc2nc(-c3nccn3C)nn3cc(-c4cccnc4)c(-c4ccccn4)c23)ncn1 [Compound 167, N-(6-Methoxypyrimidin-4-yl)-2-(1-methyl-1H-imidazol-2-yl)-5-(pyridin-2-yl)-6-(pyridin-3-yl)pyrrolo[2,1-f][1,2,4]triazin-4-amine] | 0 | 0 (0 = 0% inhibition) |
| 0 (0 = 0% inhibition) | A (A = 1-25% inhibition) | 0 | 0 (0 = 0% inhibition) | B (B = 26-49% inhibition) | CO[C@H]1C[C@@H](Nc2nc(-c3nccn3C)nn3cc(-c4ccn(C)n4)c(C)c23)C1 [Compound 131, N-((1s,3s)-3-Methoxycyclobutyl)-5-methyl-2-(1-methyl-1H-imidazol-2-yl)-6-(1-methyl-1H-pyrazol-3-yl)pyrrolo[2,1-f][1,2,4]triazin-4-amine] | 1 to 24 | 0 (0 = 0% inhibition) |
| B (B = 26-49% inhibition) | B (B = 26-49% inhibition) | 26 to 49 | A (A = 1-25% inhibition) | A (A = 1-25% inhibition) | Cc1c(-c2ccn(C)n2)cn2nc(-c3nccn3C)nc(Nc3cc(OC4CC4)ccn3)c12 [Compound 126, N-(4-Cyclopropoxypyridin-2-yl)-5-methyl-2-(1-methyl-1H-imidazol-2-yl)-6-(1-methyl-1H-pyrazol-3-yl)pyrrolo[2,1-f][1,2,4]triazin-4-amine] | 0 | A* (A* = 1-25% activation) |
| D (D = 76-100% inhibition) | D (D = 76-100% inhibition) | 76 to 100 | D (D = 76-100% inhibition) | D (D = 76-100% inhibition) | COc1ccnc(Nc2nc(-c3nccn3C)nn3cc(-c4cccnc4)c(C)c23)n1 [Compound 158, N-(4-Methoxy-pyrimidin-2-yl)-5-methyl-2-(1-methyl-1H-imidazol-2-yl)-6-(pyridin-3-yl)pyrrolo[2,1-f][1,2,4]triazin-4-amine] | 0 | B* (B* = 26-45% activation) |
| D (D = 76-100% inhibition) | D (D = 76-100% inhibition) | 50 to 75 | B (B = 26-49% inhibition) | B (B = 26-49% inhibition) | CO[C@@H]1CC[C@@H](Nc2nc(-c3nccn3C)nn3cc(-c4cccnc4)c(C)c23)C1 (racemic) [Compound 154, rac N-((1R,3R)-3-methoxy-cyclopentyl)-5-methyl-2-(1-methyl-1H-imidazol-2-yl)-6-(pyridin-3-yl)pyrrolo[2,1-f][1,2,4]triazin-4-amine] | 0 | C (C = 46-75% inhibition) |
| B (B = 26-49% inhibition) | C (C = 50-75% inhibition) | 26 to 49 | A (A = 1-25% inhibition) | C (C = 50-75% inhibition) | Cc1c(-c2ccn(C)n2)cn2nc(-c3nccn3C)nc(Nc3nnco3)c12.Cl [Compound 119, N-(5-Methyl-2-(1-methyl-1H-imidazol-2-yl)-6-(1-methyl-1H-pyrazol-3-yl)pyrrolo[2,1-f][1,2,4]triazin-4-yl)-1,3,4-oxadiazol-2-amine hydrochloride salt] | 25 to 49 | B* (B* = 26-45% activation) |
| D (D = 76-100% inhibition) | D (D = 76-100% inhibition) | 76 to 100 | D (D = 76-100% inhibition) | D (D = 76-100% inhibition) | Cc1c(-c2ccn(C3CC3)n2)cn2nc(-c3nccn3C)nc(Nc3cc(N(C)C)ccn3)c12 [Compound 145, N^2-(6-(1-Cyclopropyl-1H-pyrazol-3-yl)-5-methyl-2-(1-methyl-1H-imidazol-2-yl)pyrrolo[2,1-f][1,2,4]triazin-4-yl)-N^4,N^4-dimethylpyridine-2,4-diamine] | 1 to 24 | B* (B* = 26-45% activation) |
| C (C = 50-75% inhibition) | D (D = 76-100% inhibition) | 76 to 100 | C (C = 50-75% inhibition) | D (D = 76-100% inhibition) | CCc1nc(Nc2nc(-c3nccn3C)nn3cc(-c4ccn(C)n4)c(C)c23)nn1C [Compound 108, N-(5-Ethyl-1-methyl-1H-1,2,4-triazol-3-yl)-5-methyl-2-(1-methyl-1H-imidazol-2-yl)-6-(1-methyl-1H-pyrazol-3-yl)pyrrolo[2,1-f][1,2,4]triazin-4-amine] | 0 | D* (D* = 76-100% activation) |
| A (A = 1-25% inhibition) | 0 (0 = 0% inhibition) | 0 | 0 (0 = 0% inhibition) | A (A = 1-25% inhibition) | Cc1c(-c2ccn(C(C)C)n2)cn2nc(-c3ccccn3)nc(O)c12 [Compound 8, 6-(1-Isopropyl-1H-pyrazol-3-yl)-5-methyl-2-(pyridin-2-yl)pyrrolo[2,1-f][1,2,4]triazin-4-ol] | 0 | 0 (0 = 0% inhibition) |
| C (C = 50-75% inhibition) | C (C = 50-75% inhibition) | 76 to 100 | B (B = 26-49% inhibition) | C (C = 50-75% inhibition) | COc1ccnc(Nc2nc(-c3nccn3C)nn3cc(-c4ccn(C(F)F)n4)c(C)c23)n1 [Compound 95, 6-(1-(Difluoromethyl)-1H-pyrazol-3-yl)-N-(4-methoxypyrimidin-2-yl)-5-methyl-2-(1-methyl-1H-imidazol-2-yl)pyrrolo[2,1-f][1,2,4]triazin-4-amine] | 1 to 24 | C* (C* = 46-75% activation) |
| 0 (0 = 0% inhibition) | B (B = 26-49% inhibition) | 1 to 25 | 0 (0 = 0% inhibition) | A (A = 1-25% inhibition) | CO[C@H]1CC[C@@H](Nc2nc(-c3nccn3C)nn3cc(-c4ccn(C)n4)c(C)c23)C1 (racemic) [Compound 133, rac N-((1R,3S)-3-Methoxycyclopentyl)-5-methyl-2-(1-methyl-1H-imidazol-2-yl)-6-(1-methyl-1H-pyrazol-3-yl)pyrrolo[2,1-f][1,2,4]triazin-4-amine] | 1 to 24 | A (A = 1-25% inhibition) |
